According to patent US5206382A, “Indole derivatives, pharmaceutical compositions and methods of treating neurological and psychiatric disorders” (Fidia Georgetown Institute for the Neurosciences, priority 1991, dated 1993):
Where two headings read alike, the source gives them in different places.

Legend:
[1] = test system: MBR; details: in words; cited from earlier work
[2] = test system: rats; details: cited from earlier work
[3] = test system: GABAA receptor; details: in words; cited from earlier work
[4] = test system: MBR; details: in words; cited from earlier work; remark: listed apart in the source
[5] = Sedation and ataxia in rats; details: rat, in vivo, ratio of doses, read-out: anxiolytic doses lower than the doses that produce sedation and ataxia
[6] = test system: Sprague Dawley rats; experiment: Elevated X maze test; type: in vivo, Sprague Dawley rat; details: for Entries in open arms, test after 10 min injection / Entries in open arms, test after 20 min injection / Entries in open arms, test after 30 min injection: rats; for anxiolytic potency ranking / behavioral output of rats in the elevated X maze test: in words
Description: The elevated X maze is a behavioral test to detect anxiolytic drugs in rodents. […] The plus-maze consists of two open arms (43×8 cm) and two similarly sized enclosed arms with 9 cm high walls, arranged so that the arms of the same type are opposite each other. There is a central square of 8 cm. The apparatus is elevated to a height of 10 cm and each arm is divided into 3 squares.
Sprague Dawley rats weighing 200-250 gr. were housed in a room with a 12 hour light: 12 hour dark cycle and were allowed free access to food and water. After an i.v. injection of different indole derivatives, the rats were kept separated for 10, 20 or 30 minutes before testing. The testing period commenced when each animal was placed onto the central square of the maze. The number of entries in each arm was then recorded for 5 minutes. The maze was cleaned with water after each trial. The number of entries in the open arms provided a measure of anxiolytic activity of the drugs.

[7] = target: T1, BZD binding site located on the GABAA receptor (Rattus norvegicus, UniProt P18508+P62813); experiment: ^3 H-FLUMAZENIL binding, crude synaptic membranes; set-up: species or system Sprague Dawley rat; details: 2 nM ^3 H-FLUMAZENIL, rat cerebellum membranes
T1 construct: The cerebella were removed and incubated for 20 minutes in ice cold double distilled water; from tissue; host or cells: crude synaptic membranes of Sprague Dawley rat cerebellum
Description: (§1) Crude Synaptic Membrane Preparation: Sprague Dawley rats (200-250 gr.) were killed by decapitation. The cerebella were removed and incubated for 20 minutes in ice cold double distilled water after homogenization with Polytron. The homogenate was centrifuged at 18,000 xg at 4° C. for 10 minutes. The pellet was suspended in ice-cold buffer 50 mM Na/KPO4(pH 7.4) and centrifuged at 18,000 xg at 4° C. for 10 minutes. After two other centrifugations, the membranes were suspended in 5 ml of buffer and the proteins were measured.
(§2) The membranes were diluted with 50 mM Na/KPO4 buffer (pH 7.4) to a concentration of 150 μg of protein/ml, and 150 μl aliquots of the suspension were incubated with 50 μl of the different ligands to be tested: ^3 H-ZOLPIDEM(2 nM), ^3 H-FLUMAZENIL (2 nM), ^3 H-GABA(10 nM), ^3 H-MK 801(5 nM), ^3 H-KETANSERIN(1 nM), ^3 H-GLYCINE(20 nM), ^3 H-SPIPERONE(1 nM), ^3 H-AMPA(10 nM), ^3 H-3-PPP(1 nM), and ^3 H-NALOXONE(1 nM). Non-specific binding was assessed by displacing with 10 to 1000/μM of cold ligand.

[8] = target: T2, ^3 H-ZOLPIDEM binding (crude synaptic membrane) (Rattus norvegicus, UniProt P18508+P62813); experiment: ^3 H-ZOLPIDEM binding, crude synaptic membranes; set-up: species or system Sprague Dawley rat; details: 2 nM ^3 H-ZOLPIDEM, rat cerebellum membranes
T2 construct: from tissue; host or cells: crude synaptic membranes of Sprague Dawley rat cerebellum
Description: as §1
as §2, with “ligand. The different indole derivatives were added in a volume of 50 μl in a concentration varying from 10^-9 to 10^-3 M. The results are reported in Table I hereinbelow.” for “ligand.”

[9] = test system: mitochondrial pregnenolone formation, C6-2B glioma cells; experiment: Pregnenolone formation in glial mitochondria (C6-2B glioma cells); type: biochemical; details: for Effective concentration, maximal / EC50: C6 glial cell mitochondria, 15 minutes at 37° C.; for EC50: read-out: Effective concentration, 50%; for Stimulation %: pregnenolone formation, increase over the control
Description: The mixture was preincubated for 5 minutes at 37° C. The incubation mixture was extracted with 5 ml chloroform/methanol (2:1, vol/vol), and the organic phase was evaporated to dryness. Pregnenolone was measured by a specific radioimmunoassay using an antibody obtained from Radioassay Systems Laboratories, Carson, Calif.

[10] = target: ^3 H-GABA binding (crude synaptic membrane); experiment: ^3 H-GABA binding, crude synaptic membranes; set-up: species or system Sprague Dawley rat; details: 10 nM ^3 H-GABA, rat cerebellum membranes
Description: as §1
as §2, with “ligand. The different indole derivatives were added in a volume of 50 μl in a concentration varying from 10^-9 to 10^-3 M. The results are reported in Table I hereinbelow.” for “ligand.”

[11] = target: T3, MBR (mitochondrial benzodiazepine recognition site) (Rattus norvegicus, UniProt P16257); experiment: Displacement of ^3 H-RO5-4864 from mitochondrial BZD recognition site (MBR); type: binding, Sprague Dawley rat; details: displacement of 1 nM ^3 H-RO5-4864, rat mitochondria; range in parentheses
T3 construct: Brain and adrenal glands were removed and homogenized with Polytron; from tissue; host or cells: mitochondrial fraction of Sprague Dawley rat brain and adrenal glands
Description: (§3) Mitochondrial Preparation: Sprague Dawley rats (200-250 gr.) were killed by decapitation. Brain and adrenal glands were removed and homogenized with Polytron for 15 minutes in ice cold buffer (10 mM Na/KPO4, 0.32M sucrose, pH 7.4). The homogenate was centrifuged for 15 minutes at 6,500 xg at 4° C. The resulting supernatant was centrifuged for 15 minutes at […] at 4° C. The pellet was suspended in buffer (20 times) by gentle homogenization and centrifuged at 10,000 xg at 4° C. for 15 minutes. The washed mitochondrial pellet was stored at -70° C.
(§4) For the binding assay the mitochondrial fraction was diluted with 50 mM Na/KPO4 buffer (pH 7.4) to give a final protein concentration of […] in 100 μl buffer. This suspension was incubated with 1 nM of ^3 H PK-11195 or ^3 H RO 5-4864 (50 μl) with or without 10/μM unlabeled PK-11195 or RO 5-4864 to assess the extent of total and non-specific binding. Different amounts of indole derivatives were added to the incubation medium in a volume of 50 μl. After incubation for 60 minutes at 4° C., samples were filtered and the radioactivity was measured in a scintillation counter.

[12] = target: T3, MBR (mitochondrial benzodiazepine recognition site); experiment: Displacement of ^3 H-PK11195 from mitochondrial BZD recognition site (MBR); type: binding, Sprague Dawley rat; details: for IC50: displacement of 1 nM ^3 H-PK11195, rat mitochondria, range in parentheses; for ^3 H-PK11195 / ^3 H-RO5-4864: ratio of the two IC50 values
Description: as §3, §4

[13] = test system: GABAA receptors; details: in words; cited from earlier work

T1 sequence (P62813 28-455): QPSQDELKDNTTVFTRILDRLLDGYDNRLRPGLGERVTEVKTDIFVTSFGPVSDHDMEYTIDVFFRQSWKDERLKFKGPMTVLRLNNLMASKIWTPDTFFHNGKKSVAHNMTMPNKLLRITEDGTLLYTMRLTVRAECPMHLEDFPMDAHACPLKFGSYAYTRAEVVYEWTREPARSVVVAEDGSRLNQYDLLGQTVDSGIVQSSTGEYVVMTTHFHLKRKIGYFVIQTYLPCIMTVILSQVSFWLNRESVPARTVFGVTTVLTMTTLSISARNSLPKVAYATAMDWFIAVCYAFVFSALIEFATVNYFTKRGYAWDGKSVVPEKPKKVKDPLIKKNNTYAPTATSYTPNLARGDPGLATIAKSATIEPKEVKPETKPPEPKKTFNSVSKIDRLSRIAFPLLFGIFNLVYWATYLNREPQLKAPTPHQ
T1 sequence (P18508 39-466): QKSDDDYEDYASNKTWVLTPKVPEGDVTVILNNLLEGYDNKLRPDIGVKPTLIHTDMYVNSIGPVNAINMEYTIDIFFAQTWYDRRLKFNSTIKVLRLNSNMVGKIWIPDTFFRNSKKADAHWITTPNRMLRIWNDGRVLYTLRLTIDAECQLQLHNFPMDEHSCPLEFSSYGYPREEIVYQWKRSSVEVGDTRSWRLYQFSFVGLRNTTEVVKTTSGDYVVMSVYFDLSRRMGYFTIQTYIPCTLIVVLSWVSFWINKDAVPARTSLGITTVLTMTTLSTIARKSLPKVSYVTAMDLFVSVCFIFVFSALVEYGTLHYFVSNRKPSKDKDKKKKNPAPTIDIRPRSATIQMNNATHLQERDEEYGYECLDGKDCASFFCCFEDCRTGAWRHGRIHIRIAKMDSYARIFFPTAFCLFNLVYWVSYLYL
T2 sequence (P62813 28-455): as the sequence (P62813 28-455) above
T2 sequence (P18508 39-466): as the sequence (P18508 39-466) above

For `CN1C(=O)CN=C(c2ccc(Cl)cc2)c2cc(Cl)ccc21` [4-Cl-Diazepam], the “affinity for the MBR” value [1] is given as “high affinity”, the conflict response ([2]; rats, small doses, partially resistant to Flumazenil, sensitive to PK-11195) is given as “proconflict response” and the “binding to the GABAA receptor / BZD recognition sites on GABAA receptors” value [3] is given as “binds to the GABAA receptor”. For the same compound, the “cholesterol influx into mitochondria and formation of pregnenolone” value [4] was “facilitates cholesterol influx into mitochondria and the formation of pregnenolone”.

For `CCCCCCN(CCCCCC)C(=O)Cc1c(-c2ccc(Cl)cc2)[nH]c2ccc(Cl)cc12` [compound 43], the selectivity ratio [5] was 100 to 500, the “Entries in open arms, test after 10 min injection” value (shortened to “Entries … after 10 min injection”) ([6]; 0.5 mg/kg i.v.) was 4 and the “Entries in open arms, test after 20 min injection” value (from here on “Entries … after 20 min injection”) ([6]; 0.5 mg/kg i.v.) was 2. The “Entries in open arms, test after 30 min injection” value (“Entries … after 30 min injection” for short) ([6]; 0.5 mg/kg i.v.) was 1, the anxiolytic potency ranking [6] was “most potent anxiolytic drugs” and the “behavioral output of rats in the elevated X maze test” value (“behavioral output of rats” for short) [6] was “increase the behavioral output”.

With `CCCN(CCC)C(=O)Cc1c(-c2ccccc2)[nH]c2ccccc12` [Compound No. 2] the IC50 [7] was greater than 1 µM, the IC50 [8] was greater than 1 µM and the “Effective concentration, maximal” value [9] was 10^-9 M. For the same compound, the EC50 [9] was 0.00033 µM, the Stimulation % [9] was 200% and the IC50 [10] was greater than 1 µM. The IC50 [11] was 0.0225 µM, the “Entries … after 10 min injection” value ([6]; 20 mg/kg i.v.) was 0 and the “Entries … after 20 min injection” value ([6]; 20 mg/kg i.v.) was 0. For the same compound, the “Entries … after 30 min injection” value ([6]; 20 mg/kg i.v.) was 0, the “Entries … after 10 min injection” value ([6]; 200 mg/kg i.v.) was 4 and the “Entries … after 20 min injection” value ([6]; 200 mg/kg i.v.) was 0. For the same compound, the “Entries … after 30 min injection” value ([6]; 200 mg/kg i.v.) was 0, the “behavioral output of rats” value [6] was “increase the behavioral output” and the IC50 [12] was 0.0325 µM. The “^3 H-PK11195 / ^3 H-RO5-4864” value [12] was 1.4.

In the case of `CCCCCCN(CCCCCC)C(=O)Cc1c(-c2ccc(F)cc2)[nH]c2ccccc12` [compound 27], the IC50 [7] is reported as greater than 1 µM, the selectivity ratio [5] is reported as 100 to 500 and the “Effective concentration, maximal” value [9] is reported as 10^-7 M. For the same compound, the EC50 [9] was 0.0033 µM, the Stimulation % [9] was 300% and the IC50 [10] was greater than 1 µM. For the same compound, the IC50 [11] was 0.02 µM, the “Entries … after 10 min injection” value ([6]; 0.5 mg/kg i.v.) was 5 and the “Entries … after 20 min injection” value ([6]; 0.5 mg/kg i.v.) was 2. The “Entries … after 30 min injection” value ([6]; 0.5 mg/kg i.v.) was 1, the anxiolytic potency ranking [6] was “most potent anxiolytic drugs” and the “behavioral output of rats” value [6] was “increase the behavioral output”. For the same compound, the IC50 [12] was 0.018 µM and the “^3 H-PK11195 / ^3 H-RO5-4864” value [12] was 0.9.

In the case of `C[C@]12CC[C@@H](O)C[C@@H]1CC[C@@H]1[C@@H]2CC[C@]2(C)[C@@H](C(=O)CO)CC[C@@H]12` [3α,21-dihydroxy-5α-pregnan-20-one(THDOC), 3α,21-dihydroxy-5α-pregnan-20-one], the “modulation of GABA action” value [13] is listed as “positively modulate”.

For `CC(=O)[C@H]1CC[C@H]2[C@@H]3CC[C@H]4C[C@H](O)CC[C@]4(C)[C@H]3CC[C@]12C` [3-α-hydroxy-5α-pregnan-20-one(3-αOH-DHP), 3-α-hydroxy-5α-pregnan-20-one], the “modulation of GABA action” value [13] is listed as “positively modulate”.

In the case of `CCCN(CCC)C(=O)Cc1c(-c2ccc(Cl)cc2)nc2ccc(Cl)cn12` [Alpidem], the “affinity for the MBR” value [1] is listed as “high affinity”, the conflict response ([2]; dose-related, reduced by both PK-11195 and Flumazenil) is listed as “anticonflict (anxiolytic) action” and the “binding to the GABAA receptor / BZD recognition sites on GABAA receptors” value [3] is listed as “high affinity”. The “cholesterol influx into mitochondria and formation of pregnenolone” value [4] was “facilitates cholesterol influx into mitochondria and the formation of pregnenolone”.

For `CC(=O)[C@H]1CC[C@H]2[C@@H]3CC=C4C[C@@H](OS(=O)(=O)O)CC[C@]4(C)[C@H]3CC[C@]12C` [pregnenolone sulphate], the “modulation of GABA action” value [13] is given as “negatively modulate”.
